Source: US20080050452A1, “METAL-CONTAINING FORMULATIONS AND METHODS OF USE” (priority 2006, published 2008)

Test system: Serratia marcescens
Assay: MIC assay
Type: cell-based

Question: `O=[N+]([O-])[O-].[Ag+]` [AgNO3, silver nitrate] was tested. Which MIC (Ser. marcescens isolate NP402 (first listing)) did it give?
Answer: Its MIC is 6 parts silver per million.

Question: What about the MIC (Ser. marcescens isolate NP402 (second listing)) of the same compound?
Answer: Its MIC is 6 parts silver per million.

Question: And the MIC (Ser. marcescens isolate NP408 (first listing))?
Answer: The MIC was 6 parts silver per million.

Question: What about the MIC (Ser. marcescens isolate NP408 (second listing)) of the same compound?
Answer: Its MIC is 11 parts silver per million.

Question: What about the MIC (Serratia marcescens, aerobic conditions (+)) of the same compound?
Answer: The MIC was 6 µg/mL.

Question: And the MIC (Serratia marcescens, anaerobic conditions (Aerobic −))?
Answer: The MIC was 13 µg/mL.
